Experimental data taken from patent US8506945B2, “Polymers with structure-defined functions” (Smith & Nephew, PLC., priority 2001, dated 2013).

Assays:
[1] = system: ovine meniscal chondrocytes P3; test: Cytotoxicity on chondrocyte culture, PicoGreen DNA assay; assay type: cell-based; conditions: 48 h incubation, DNA by PicoGreen assay
From the text: The high chemical reactivity of protease inhibitors represents toxicological problems both in vitro and potentially in vivo. […] DNA concentrations were obtained using a PicoGreen assay.

Elastase = Elastase (1.2 μg/ml), 20° C., 0.2M TRIS buffer
Thrombin = Thrombin (Homo sapiens, UniProt P00734); test: biochemical

NCCc1ccc(S(=O)(=O)F)cc1 [AEBSF, 4-(2-aminoethyl)benzenesulphonylfluoride]
concentration at which significant toxicity deviation from the vehicle alone begins [1]: 8000 ng/mL
IC50 (Elastase): 312 µM
IC50 (Thrombin): 712 µM
